From US10618901B2 (GlaxoSmithKline Intellectual Property Development Limited, priority 2014, dated 2020)

The molecules below were run against T1, LRRK2 Ser935 phosphorylation in SH-SY5Y cells over-expressing recombinant full length LRRK2 (Homo sapiens, UniProt Q5S007) (assay: Recombinant cellular LRRK2 AlphaScreen assay). Conditions: LRRK2 Ser935 phosphorylation, 60 minutes, read-out: recombinant cellcular LRRK2 alphaScreen assay (pIC50) (converted).
T1 construct: A BacMam virus expressing full length recombinant LRRK2 was purchased from Invitrogen; host or cells: SH-SY5Y (BacMam transduction)
T1 sequence (Q5S007 whole entry): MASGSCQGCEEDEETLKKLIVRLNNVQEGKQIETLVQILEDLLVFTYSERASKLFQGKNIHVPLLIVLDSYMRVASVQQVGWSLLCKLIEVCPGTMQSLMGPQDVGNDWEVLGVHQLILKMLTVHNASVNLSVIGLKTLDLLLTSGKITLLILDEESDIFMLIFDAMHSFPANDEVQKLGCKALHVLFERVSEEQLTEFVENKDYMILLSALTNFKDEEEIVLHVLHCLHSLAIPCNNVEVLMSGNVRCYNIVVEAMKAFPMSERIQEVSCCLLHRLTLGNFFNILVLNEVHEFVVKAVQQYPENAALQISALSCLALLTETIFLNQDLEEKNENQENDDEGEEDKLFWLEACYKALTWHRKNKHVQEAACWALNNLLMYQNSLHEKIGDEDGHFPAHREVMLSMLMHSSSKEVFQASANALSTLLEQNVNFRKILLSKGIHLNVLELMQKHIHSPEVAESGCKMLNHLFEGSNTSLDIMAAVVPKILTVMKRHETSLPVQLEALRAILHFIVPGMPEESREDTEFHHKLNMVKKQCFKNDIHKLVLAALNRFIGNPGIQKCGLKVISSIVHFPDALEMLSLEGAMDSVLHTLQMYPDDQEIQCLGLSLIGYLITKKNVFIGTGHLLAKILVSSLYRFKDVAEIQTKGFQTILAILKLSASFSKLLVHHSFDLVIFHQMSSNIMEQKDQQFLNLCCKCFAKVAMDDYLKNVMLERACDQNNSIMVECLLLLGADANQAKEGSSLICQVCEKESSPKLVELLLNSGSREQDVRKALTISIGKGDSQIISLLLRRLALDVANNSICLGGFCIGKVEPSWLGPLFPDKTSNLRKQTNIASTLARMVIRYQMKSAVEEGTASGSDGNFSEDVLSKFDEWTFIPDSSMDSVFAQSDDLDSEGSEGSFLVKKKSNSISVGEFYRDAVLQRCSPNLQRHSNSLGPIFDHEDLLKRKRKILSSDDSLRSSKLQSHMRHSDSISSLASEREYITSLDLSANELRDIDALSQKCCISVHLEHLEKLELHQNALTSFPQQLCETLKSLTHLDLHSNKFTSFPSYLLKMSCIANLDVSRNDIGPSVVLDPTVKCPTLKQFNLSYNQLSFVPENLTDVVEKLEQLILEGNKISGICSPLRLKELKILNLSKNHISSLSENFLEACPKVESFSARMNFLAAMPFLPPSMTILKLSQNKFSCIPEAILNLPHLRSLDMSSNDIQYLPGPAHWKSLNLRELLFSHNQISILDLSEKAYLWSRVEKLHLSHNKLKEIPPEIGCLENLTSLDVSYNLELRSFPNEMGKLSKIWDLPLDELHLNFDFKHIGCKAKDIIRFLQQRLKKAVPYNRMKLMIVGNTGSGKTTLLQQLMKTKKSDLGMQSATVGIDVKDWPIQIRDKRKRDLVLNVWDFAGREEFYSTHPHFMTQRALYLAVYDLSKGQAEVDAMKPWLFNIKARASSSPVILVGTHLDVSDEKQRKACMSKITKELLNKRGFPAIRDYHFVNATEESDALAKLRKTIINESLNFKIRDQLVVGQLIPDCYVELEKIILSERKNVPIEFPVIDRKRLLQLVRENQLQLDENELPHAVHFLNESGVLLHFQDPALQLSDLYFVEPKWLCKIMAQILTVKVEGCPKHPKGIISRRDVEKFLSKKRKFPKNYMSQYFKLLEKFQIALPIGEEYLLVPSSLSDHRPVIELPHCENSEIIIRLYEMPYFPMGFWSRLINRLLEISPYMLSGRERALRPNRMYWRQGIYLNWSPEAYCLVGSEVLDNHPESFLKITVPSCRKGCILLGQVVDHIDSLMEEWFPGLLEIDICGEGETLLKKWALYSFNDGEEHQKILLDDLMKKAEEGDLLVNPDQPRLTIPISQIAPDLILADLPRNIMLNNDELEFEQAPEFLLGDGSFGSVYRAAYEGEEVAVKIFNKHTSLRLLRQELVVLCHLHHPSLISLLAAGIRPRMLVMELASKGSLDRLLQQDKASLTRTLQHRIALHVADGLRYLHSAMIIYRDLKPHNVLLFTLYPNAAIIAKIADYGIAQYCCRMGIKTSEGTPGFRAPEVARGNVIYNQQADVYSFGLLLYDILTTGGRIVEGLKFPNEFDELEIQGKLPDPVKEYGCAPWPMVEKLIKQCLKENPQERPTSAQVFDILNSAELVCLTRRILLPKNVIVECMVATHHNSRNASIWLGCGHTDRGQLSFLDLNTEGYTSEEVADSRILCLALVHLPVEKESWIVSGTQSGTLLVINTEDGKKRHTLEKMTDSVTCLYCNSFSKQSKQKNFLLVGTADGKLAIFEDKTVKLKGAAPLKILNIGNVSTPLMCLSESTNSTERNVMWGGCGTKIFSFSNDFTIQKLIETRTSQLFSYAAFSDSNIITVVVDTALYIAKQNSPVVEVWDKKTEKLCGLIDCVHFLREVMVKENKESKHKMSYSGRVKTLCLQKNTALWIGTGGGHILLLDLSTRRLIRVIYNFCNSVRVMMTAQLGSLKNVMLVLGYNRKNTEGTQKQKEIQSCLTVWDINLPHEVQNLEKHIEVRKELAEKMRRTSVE
Format: cell-based
Text: Recombinant Cellular LRRK2 AlphaScreen Assay
To determine the activity of compounds against LRRK2 kinase activity in cells, the observed LRRK2 kinase-dependent modulation of LRRK2 Ser 935 phosphorylation (Dzamko et al., 2010, Biochem. J. 430: 405-413) was utilized to develop a quantitative 384 well plate-based immunoassay of LRRK2 Ser935 phosphorylation in the human neuroblastoma cell line SH-SY5Y, engineered to over-express recombinant full length LRRK2 protein.
A BacMam virus expressing full length recombinant LRRK2 was purchased from Invitrogen and amplified by inoculation of SF-9 cells at MOI 0.3 for 4-5 days in Sf-900 III SFM medium supplemented with 3% fetal bovine serum. Infected cell cultures were then centrifuged at 2000 g for 20 minutes, viral supernatant titer determined by anti-gp64 plaque assay and stored at 4° C.
Affinity-purified anti-phospho LRRK2 Ser935 sheep polyclonal antibody (Dzamko et al., 2010, Biochem. J. 430: 405-413) was biotinylated by standard methods (PerkinElmer). Anti-LRRK2 rabbit polyclonal antibody was purchased from Novus Biologicals. AlphaScreen Protein A IgG Kit (including acceptor and donor beads) was purchased from Perkin Elmer.
SH-SY5Y cells were grown in DMEM/F12 medium with 10% dialysed fetal bovine serum and harvested by treatment with 0.5% trypsin-EDTA for 5 minutes at 37° C. followed by centrifugation at 1000 rpm for 4 minutes. The cell pellet was resuspended in Opti-MEM reduced serum media (Invitrogen) at 200,000 cells/ml and mixed with the BacMam LRRK2 virus at M01=50. 50 μl cell solutions were then dispensed to each well of a 384-well plate and incubated at 37° C., 5% CO2 for 24 hours.
Serial dilutions of test compounds were prepared in Opti-MEM reduced serum media (Invitrogen) and 5.6 ul transferred from compound plate to cell assay plate to achieve a top final assay concentration of 10 uM. DMSO was used in certain wells as controls. Cells were incubated at 37° C., 5% CO2 for 60 minutes. The medium was then removed and cells lysed by addition of 20 ul cell lysis buffer (Cell Signaling Technology) and incubation at 4° C. for 20 minutes. 10 ul of antibody/acceptor bead mix [(1/1000 biotinylated-pS935 LRRK2 antibody, 1/1000 total-LRRK2 antibody, 1/100 Acceptor beads in AlphaScreen detection buffer (25 mM Hepes (pH 7.4), 0.5% Triton X-100, 1 mg/ml Dextran 500 and 0.1% BSA)] was then added to each well and plates incubated for 2 hours at ambient temperature in the dark. 10 μl of donor beads solution (1/33.3 donor beads in AlphaScreen detection buffer) was then added to each well. Following incubation for a further 2 hours at ambient temperature in the dark, plates were read on an EnVision™ plate reader at emission 520-620 nm with excitation 680 nm. Dose response curve data was based on sigmoidal dose-response model.
`CCOc1nc(Nc2cnn([C@H]3C[C@H](F)CN(C4COC4)C3)c2Cl)nc2[nH]ccc12` [Example E150, N-(5-chloro-1-((3S,5S)-5-fluoro-1-(oxetan-3-yl)piperidin-3-yl)-1H-pyrazol-4-yl)-4-ethoxy-7H-pyrrolo[2,3-d]pyrimidin-2-amine] showed an IC50 of 31.6 nM.

Same assay, conditions: read-out: pIC50 in the recombinant cellular LRRK2 alphaScreen assay (converted)
For `CCOc1nc(Nc2cnn(C3CCOCC3F)c2C)nc2[nH]ccc12` (single isomer, unassigned) [Example E128, (cis)-4-ethoxy-N-(1-(3-fluorotetrahydro-2H-pyran-4-yl)-5-methyl-1H-pyrazol-4-yl)-7H-pyrrolo[2,3-d]pyrimidin-2-amine], the IC50 was ≤ 100 nM.
In the case of `CCOc1nc(Nc2cnn(C3CCN(C4COC4)CC3F)c2Cl)nc2[nH]ccc12` (single isomer, unassigned) [Example E106, cis-N-(5-chloro-1-(3-fluoro-1-(oxetan-3-yl)piperidin-4-yl)-1H-pyrazol-4-yl)-4-ethoxy-7H-pyrrolo[2,3-d]pyrimidin-2-amine], the IC50 is reported as ≤ 100 nM.
With `CCOc1nc(Nc2cnn(CCN3CC[C@H](F)C3)c2C)nc2[nH]ccc12` [Example E64, (S)-4-ethoxy-N-(1-(2-(3-fluoropyrrolidin-1-yl)ethyl)-5-methyl-1H-pyrazol-4-yl)-7H-pyrrolo[2,3-d]pyrimidin-2-amine] the IC50 was ≤ 100 nM.
In the case of `CCOc1nc(Nc2cnn(C3CCOC3)c2C)nc2[nH]ccc12` (single isomer, unassigned) [Example E16, 4-ethoxy-N-(5-methyl-1-(tetrahydrofuran-3-yl)-1H-pyrazol-4-yl)-7H-pyrrolo-[2,3-d]-pyrimidin-2-amine], the IC50 is reported as ≤ 100 nM.
In the case of `CCOc1nc(Nc2cnn([C@H]3CCN(C)C3)c2C)nc2[nH]cc(C#N)c12` [Example E49, (S)-4-ethoxy-2-((5-methyl-1-(1-methyl-pyrrolidin-3-yl)-1H-pyrazol-4-yl)-amino)-7H-pyrrolo-[2,3-d]pyrimidine-5-carbonitrile], the IC50 is reported as ≤ 100 nM.
With `CCOc1nc(Nc2cnn([C@@H]3CCN(C4COC4)C[C@H]3F)c2C)nc2[nH]ccc12` [Example E98, 4-ethoxy-N-(1-((3R,4R)-3-fluoro-1-(oxetan-3-yl)piperidin-4-yl)-5-methyl-1H-pyrazol-4-yl)-7H-pyrrolo[2,3-d]pyrimidin-2-amine] the IC50 was ≤ 100 nM.
With `CCOc1nc(Nc2cnn([C@H]3CCN(CC(F)F)C3)c2C)nc2[nH]ccc12` [Example E87, (S)—N-(1-(1-(2,2-difluoroethyl)pyrrolidin-3-yl)-5-methyl-1H-pyrazol-4-yl)-4-ethoxy-7H-pyrrolo[2,3-d]pyrimidin-2-amine] the IC50 was ≤ 100 nM.
For `CCOc1nc(Nc2cnn(C3COC3)c2Cl)nc2[nH]ccc12` [Example E35, N-(5-chloro-1-(oxetan-3-yl)-1H-pyrazol-4-yl)-4-ethoxy-7H-pyrrolo-[2,3-d]pyrimidin-2-amine], the IC50 was ≤ 100 nM.
With `CCOc1nc(Nc2cnn([C@@H]3CCN[C@@H](C(F)F)C3)c2C)nc2[nH]ccc12` [Example E94, N-(1-((2R,4R)-2-(difluoromethyl)piperidin-4-yl)-5-methyl-1H-pyrazol-4-yl)-4-ethoxy-7H-pyrrolo[2,3-d]pyrimidin-2-amine] the IC50 was ≤ 100 nM.
`CCOc1nc(Nc2cnn([C@H]3CCN(C4COC4)C[C@@H]3F)c2C)nc2[nH]ccc12` [Example E97, 4-ethoxy-N-(1-((3S,4S)-3-fluoro-1-(oxetan-3-yl)piperidin-4-yl)-5-methyl-1H-pyrazol-4-yl)-7H-pyrrolo[2,3-d]pyrimidin-2-amine] was tested, and the IC50 was ≤ 100 nM.
With `CCOc1nc(Nc2cnn(CCF)c2C)nc2[nH]ccc12` [Example E26, 4-ethoxy-N-(1-(2-fluoroethyl)-5-methyl-1H-pyrazol-4-yl)-7H-pyrrolo-[2,3-d]-pyrimidin-2-amine] the IC50 was ≤ 100 nM.
`CCOc1nc(Nc2cnn(CC(C)N3CCOCC3)c2C)nc2[nH]ccc12` (single isomer, unassigned) [Example E92] was tested, and the IC50 was ≤ 100 nM.
With `CCOc1nc(Nc2cnn([C@H]3CCN[C@@H](C(F)F)C3)c2C)nc2[nH]ccc12` [Example E95, N-(1-((2R,4S)-2-(difluoromethyl)piperidin-4-yl)-5-methyl-1H-pyrazol-4-yl)-4-ethoxy-7H-pyrrolo[2,3-d]pyrimidin-2-amine] the IC50 was ≤ 100 nM.
In the case of `CCOc1nc(Nc2cnn(C3CCN(C4COC4)CC3F)c2C)nc2[nH]ccc12` (single isomer, unassigned) [Example E102, cis-4-ethoxy-N-(1-(3-fluoro-1-(oxetan-3-yl)piperidin-4-yl)-5-methyl-1H-pyrazol-4-yl)-7H-pyrrolo[2,3-d]pyrimidin-2-amine], the IC50 is reported as ≤ 100 nM.
With `CCOc1nc(Nc2cnn([C@@H]3CCCN(C4COC4)C3)c2C)nc2[nH]ccc12` [Example E135, (R)-4-ethoxy-N-(5-methyl-1-(1-(oxetan-3-yl)piperidin-3-yl)-1H-pyrazol-4-yl)-7H-pyrrolo [2,3-d]pyrimidin-2-amine] the IC50 was ≤ 100 nM.
For `CCOc1nc(Nc2cnn(C3CCN(C4COC4)CC3F)c2CC)nc2[nH]ccc12` (single isomer, unassigned) [Example E130, (trans)-4-ethoxy-N-(5-ethyl-1-(3-fluoro-1-(oxetan-3-yl)piperidin-4-yl)-1H-pyrazol-4-yl)-7H-pyrrolo[2,3-d]pyrimidin-2-amine], the IC50 was ≤ 100 nM.
For `CCOc1nc(Nc2cnn(CC3COC3)c2Cl)nc2[nH]ccc12` [Example E28, N-(5-chloro-1-(oxetan-3-yl-methyl)-1H-pyrazol-4-yl)-4-ethoxy-7H-pyrrolo-[2,3-d]pyrimidin-2-amine], the IC50 was ≤ 100 nM.
In the case of `CCOc1nc(Nc2cnn([C@H]3C[C@H](F)CN(C4COC4)C3)c2Cl)nc2[nH]ccc12` [Example E150, N-(5-chloro-1-((3S,5S)-5-fluoro-1-(oxetan-3-yl)piperidin-3-yl)-1H-pyrazol-4-yl)-4-ethoxy-7H-pyrrolo[2,3-d]pyrimidin-2-amine], the IC50 is reported as ≤ 100 nM.
For `CCOc1nc(Nc2cnn(CCN3CCO[C@@H](C)C3)c2C)nc2[nH]ccc12` [Example E84, (S)-4-ethoxy-N-(5-methyl-1-(2-(2-methylmorpholino)ethyl)-1H-pyrazol-4-yl)-7H-pyrrolo [2,3-d]pyrimidin-2-amine], the IC50 was ≤ 100 nM.
For `CCOc1nc(Nc2cnn(C(C)(C)CO)c2C)nc2[nH]ccc12` [Example E65, 2-(4-((4-ethoxy-7H-pyrrolo-[2,3-d]pyrimidin-2-yl)amino)-5-methyl-1H-pyrazol-1-yl)-2-methylpropan-1-ol], the IC50 was ≤ 100 nM.
For `CCOc1nc(Nc2cnn(CC(C)(C)C#N)c2C)nc2[nH]ccc12` [Example E62, 3-(4-((4-ethoxy-7H-pyrrolo-[2,3-d]pyrimidin-2-yl)amino)-5-methyl-1H-pyrazol-1-yl)-2,2-dimethylpropanenitrile], the IC50 was ≤ 100 nM.
`CCOc1nc(Nc2cnn(CC(C)(C)O)c2Cl)nc2[nH]ccc12` [Example E15, 1-(5-chloro-4-((4-ethoxy-7H-pyrrolo-[2,3-d]pyrimidin-2-yl)amino)-1H-pyrazol-1-yl)-2-methylpropan-2-ol] was tested, and the IC50 was ≤ 100 nM.
With `CCOc1nc(Nc2cn(C)nc2C)nc2[nH]ccc12` [Example E1, N-(1,3-dimethyl-1H-pyrazol-4-yl)-4-ethoxy-7H-pyrrolo[2,3-d]pyrimidin-2-amine] the IC50 was ≤ 100 nM.
In the case of `CCOc1nc(Nc2cnn(C3CCC(N4CCOCC4)C3)c2Cl)nc2[nH]ccc12` (single isomer, unassigned) [Example E110, (trans)-N-(5-chloro-1-(3-morpholinocyclopentyl)-1H-pyrazol-4-yl)-4-ethoxy-7H-pyrrolo [2,3-d]pyrimidin-2-amine], the IC50 is reported as ≤ 100 nM.
For `CCOc1nc(Nc2cn(CCF)nc2C)nc2[nH]ccc12` [Example E27, 4-ethoxy-N-(1-(2-fluoroethyl)-3-methyl-1H-pyrazol-4-yl)-7H-pyrrolo-[2,3-d]-pyrimidin-2-amine], the IC50 was ≤ 100 nM.
In the case of `CCOc1nc(Nc2cnn(C3CN(C4COC4)CCC3(F)F)c2C)nc2[nH]ccc12` (single isomer, unassigned) [Example E119, N-(1-(4,4-difluoro-1-(oxetan-3-yl)piperidin-3-yl)-5-methyl-1H-pyrazol-4-yl)-4-ethoxy-7H-pyrrolo[2,3-d]pyrimidin-2-amine], the IC50 is reported as ≤ 100 nM.
With `CCOc1nc(Nc2cnn(C3CCOCC3)c2Cl)nc2[nH]ccc12` [Example E22, N-(5-chloro-1-(tetrahydro-2H-pyran-4-yl)-1H-pyrazol-4-yl)-4-ethoxy-7H-pyrrolo-[2,3-d]-pyrimidin-2-amine] the IC50 was ≤ 100 nM.
